Source: US11548855B2, “Pyrazole amide compound and application thereof, and fungicide” (Shandong United Pesticide Industry Co. Ltd., priority 2017, dated 2023)

Experiments:
[1] = system: soybean rust (Phakopsora pacchyrhizi Sydow); assay: Greenhouse pot test, soybean rust; type: in vivo; conditions: Glycine max, 168 h, read-out: Control effect (%) Soybean rust
Method: Test method: each of the test compounds in Table 1 was dispensed to 5 wt % emulsifiable concentrate (hereinafter referred to as 5% EC). The greenhouse pot test was used in each experiment, and the effective concentrations of each compound were illustrated in Table 1.
Soybean rust: two-leaf stage potted soybean seedling with uniform growth was selected and made foliar spray treatment with 5% EC, the blank control sprayed with clean water was additionally arranged, three replicates were carried out. After 24 h, the leaves of the host plants were inoculated with sporangial suspensions of the fungi soybean rust (Phakopsora pacchyrhizi Sydow), the plants were stored in humidity chamber (temperature 20-25° C., relative humidity>95%) and then transferred to greenhouse (25±1° C.) 8-16 h after infection. After 7 days, the screening results were investigated according to the disease incidence condition of blank control.
The investigation method: “Guidelines for the field efficacy trials of pesticides” was adopted as the grading standard, and the control effect in a unit of % was calculated based on the disease index. Disease index=Σ(number of diseased leaves at each grade×relative grade value)×100/(total number of leaves×9); Control effect (%)=(disease index of control−disease index of treated)×100/disease index of control;
The compounds provided by the present disclosure and some control compounds were tested by the same methods in the Test example 1, except that the effective concentrations of the compounds in this Test example are shown in Table 2.

cucumber powdery mildew = assay: Field trial, cucumber powdery mildew; type: in vivo; conditions: sprayed twice
Method: I. Cucumber Powdery Mildew Test Method:
Spray method: Stein and leaf spray (Applicator: Xinkangda lithium battery electric sprayer).
Test crop: cucumber (cultivars: Tianjiao7)
The test was carried out in Shenyang, the test field was loam with rich organic matters and normal management of fertilizer and water, and no other pesticide was applied during the test.
The arrangement of the test plot was random block permutation; the area of the test plot: 15 m^2; repeat times: 3 times; spray time and frequency: period between Sep. 28, 2018 and Oct. 11, 2018, twice. Spray dosage: each treatment was repeated 3 times, the total water consumption was 8 L. No other pesticide was applied during the test. […] 15-20 days after the second treatment, the incidence of disease spots in each plot was investigated.
The incidence of disease spots in each plot was investigated by randomly selecting 4 samples/plot and 2 plants/samples, all leaves/plant, the incidence of the whole plant was recorded by counting the number of disease leaves and determining the incidence grade.
Grading standard (in units of leaves):
Grade 0: no leaf-spot area;
Grade 1: the ratio of leaf-spot area to leaf area is less than 5%;
Grade 3: the ratio of leaf-spot area to leaf area is between 6-10%;
Grade 5: the ratio of leaf-spot area to leaf area is between 11-20%;
Grade 7: the ratio of leaf-spot area to leaf area is between 21-40%;
Grade 9: the ratio of leaf-spot area to leaf area is more than 40%;
According to the relevant content of the “Guidelines for the field efficacy trials of pesticides of the People's Republic of China (PRC)”, the disease index was calculated according to the grading standard, and the control effect in a unit of % was calculated based on the disease index, and the test data of significance analysis was performed by using DPS evaluation system (DMRT).

Cn1cc(C(=O)Nc2ccccc2Oc2ccc(C(F)(F)F)cc2C(F)(F)F)c(C(F)F)n1 [Compound 1]
pest or weed control at 0.5 µg/mL ([1]; 0.5 mg/L): 100% | pest or weed control at 1 µg/mL ([1]; 1 mg/L): 100% | pest or weed control at 1.5625 µg/mL ([1]; 1.5625 mg/L): 100% | pest or weed control at 2.5 µg/mL ([1]; 2.5 mg/L): 100% | pest or weed control at 3.125 µg/mL ([1]; 3.1250 mg/L): 100% | pest or weed control at 6.25 µg/mL ([1]; 6.25 mg/L): 100% | pest or weed control at 10 µg/mL ([1]; 10 mg/L): 100% | pest or weed control at 25 µg/mL ([1]; 25 mg/L): 100% | pest or weed control at 100 µg/mL ([1]; 100 mg/L): 100% | Control effect (%) Cucumber powdery mildew (cucumber powdery mildew; 100 mg/L): 90.0% | Control effect (%) Cucumber powdery mildew (cucumber powdery mildew; 200 mg/L): 96.5%
